Source: patent US12492193B2, “Pyrazole derivatives for the treatment of cystic fibrosis” (Fondazione Istituto Italiano Di Tecnologia, priority 2017, dated 2025)

Target: T1, mutant CFTR (Homo sapiens, UniProt P13569, DEL508-508)
T1 construct: expressed in transfected cells
Assay: Fluorescence (HS-YFP) assay for CFTR activity, corrector assay
Assay type: cell-based
Details: CFBE41o- and FRT cells with stable expression of mutant CFTR, 24 h compound treatment
Summary of the method: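 Corrector activity: 24 h compound treatment of HS-YFP/mutant-CFTR CFBE41o- or FRT cells, followed by 30 min forskolin 20 μM + genistein 50 μM at 37° C. Iodide influx (100 mM final) was tracked as fluorescence quenching, with dF/dt extrapolated by exponential fitting; EC50 values derived.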

T1 sequence (P13569 with tags, fused parts or gaps DEL508-508): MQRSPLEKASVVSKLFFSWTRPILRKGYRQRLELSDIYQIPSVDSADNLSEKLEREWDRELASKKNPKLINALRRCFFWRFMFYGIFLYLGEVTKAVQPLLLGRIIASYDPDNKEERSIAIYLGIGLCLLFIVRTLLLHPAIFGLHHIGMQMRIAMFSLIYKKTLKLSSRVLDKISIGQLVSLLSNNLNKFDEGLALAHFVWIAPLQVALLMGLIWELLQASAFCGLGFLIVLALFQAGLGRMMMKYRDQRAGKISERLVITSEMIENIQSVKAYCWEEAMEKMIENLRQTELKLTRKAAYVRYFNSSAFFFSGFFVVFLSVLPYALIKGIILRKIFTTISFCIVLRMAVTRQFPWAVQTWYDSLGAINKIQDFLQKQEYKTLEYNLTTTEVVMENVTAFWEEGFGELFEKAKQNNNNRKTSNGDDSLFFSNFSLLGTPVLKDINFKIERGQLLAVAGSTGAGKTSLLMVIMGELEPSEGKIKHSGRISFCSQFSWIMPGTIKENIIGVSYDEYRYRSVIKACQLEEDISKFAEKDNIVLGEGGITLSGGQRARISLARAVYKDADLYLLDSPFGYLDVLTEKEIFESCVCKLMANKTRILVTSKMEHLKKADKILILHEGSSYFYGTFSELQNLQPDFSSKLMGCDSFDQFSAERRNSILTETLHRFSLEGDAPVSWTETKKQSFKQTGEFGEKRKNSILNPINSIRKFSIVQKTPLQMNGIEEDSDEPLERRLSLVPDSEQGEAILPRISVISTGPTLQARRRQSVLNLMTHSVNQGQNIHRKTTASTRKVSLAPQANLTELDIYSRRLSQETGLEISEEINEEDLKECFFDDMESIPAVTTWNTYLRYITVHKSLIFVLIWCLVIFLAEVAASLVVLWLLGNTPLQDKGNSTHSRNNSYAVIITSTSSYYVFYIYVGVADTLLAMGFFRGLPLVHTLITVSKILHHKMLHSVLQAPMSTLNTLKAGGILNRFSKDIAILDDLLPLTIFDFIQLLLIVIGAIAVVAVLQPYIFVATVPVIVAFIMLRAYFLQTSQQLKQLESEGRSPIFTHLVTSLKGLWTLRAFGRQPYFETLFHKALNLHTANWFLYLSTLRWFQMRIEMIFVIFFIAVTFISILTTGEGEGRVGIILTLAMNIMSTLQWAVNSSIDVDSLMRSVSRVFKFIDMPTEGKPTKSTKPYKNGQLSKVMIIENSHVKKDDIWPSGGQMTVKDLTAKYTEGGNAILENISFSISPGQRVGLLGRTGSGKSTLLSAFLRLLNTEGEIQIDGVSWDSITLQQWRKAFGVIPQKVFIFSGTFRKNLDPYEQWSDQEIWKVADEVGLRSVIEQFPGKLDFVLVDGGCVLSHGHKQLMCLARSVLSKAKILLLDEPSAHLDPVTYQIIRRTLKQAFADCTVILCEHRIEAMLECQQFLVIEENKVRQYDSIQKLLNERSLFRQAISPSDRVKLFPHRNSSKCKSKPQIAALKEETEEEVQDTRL

EC50 [µM] | Structure (SMILES)
< 1 | CN(C(=O)c1cccc(-n2nc(C(F)(F)F)cc2-c2ccco2)c1)c1ccc2c(c1)OCO2 [compound 147, N-(1,3-Benzodioxol-5-yl)-3-[5-(2-furyl)-3-(trifluoromethyl)pyrazol-1-yl]-N-methyl-benzamide]
1 to 2 | Cc1nc2ccc(N(C)C(=O)c3cccc(-n4nc(C(F)(F)F)c(Cl)c4C)c3)cc2s1 [compound 149, 3-[4-Chloro-5-methyl-3-(trifluoromethyl)pyrazol-1-yl]-N-methyl-N-(2-methyl-1,3-benzothiazol-6-yl)benzamide]
< 1 | CCOC(=O)c1ccc(OCc2c(Cl)c(C(F)(F)F)nn2-c2cccc(C(=O)N(C)c3ccc4c(c3)OCO4)c2)cc1 [compound 150, Ethyl 4-[[2-[3-[1,3-benzodioxol-5-yl(methyl)carbamoyl]phenyl]-4-chloro-5-(trifluoromethyl)pyrazol-3-yl]methoxy]benzoate]
< 1 | CN(C(=O)c1cccc(-n2nc(C(F)(F)F)c(Cl)c2COc2ccc(C(=O)O)cc2)c1)c1ccc2c(c1)OCO2 [compound 151, 4-[[2-[3-[1,3-benzodioxol-5-yl(methyl)carbamoyl]phenyl]-4-chloro-5-(trifluoromethyl)pyrazol-3-yl]methoxy]benzoic acid]
< 1 | COC(=O)c1ccc(COc2cc(C(F)(F)F)nn2-c2cccc(C(=O)N(C)c3ccc4c(c3)OCO4)c2)cc1 [compound 152, Methyl-4-[[2-[3-[1,3-benzodioxol-5-yl(methyl)carbamoyl]phenyl]-5-(trifluoromethyl)pyrazol-3-yl]oxymethyl]benzoate]
< 1 | Cc1nc2cc(F)c(N(C)C(=O)c3cccc(-n4nc(C(F)(F)F)c(Cl)c4C)c3)cc2o1 [compound 154, 3-[4-Chloro-5-methyl-3-(trifluoromethyl)pyrazol-1-yl]-N-(5-fluoro-2-methyl-1,3-benzoxazol-6-yl)-N-methyl-benzamide]
< 1 | COC(=O)c1ccc(COc2c(Cl)c(C(F)(F)F)nn2-c2cccc(C(=O)N(C)c3ccc4c(c3)OCO4)c2)cc1 [compound 155, Methyl 4-[[2-[3-[1,3-benzodioxol-5-yl(methyl)carbamoyl]phenyl]-4-chloro-5-(trifluoromethyl)pyrazol-3-yl]oxymethyl]benzoate]
< 1 | COC(=O)c1ccc(COc2c(Cl)c(C(F)(F)F)nn2-c2cccc(C(=O)N(C)c3cc4c(cc3Cl)OCO4)c2)cc1 [compound 156, Methyl 4-[[4-chloro-2-[3-[(6-chloro-1,3-benzodioxol-5-yl)-methyl-carbamoyl]phenyl]-5-(trifluoromethyl)pyrazol-3-yl]oxymethyl]benzoate]
< 1 | CN(C(=O)c1cccc(-n2nc(C(F)(F)F)c(Cl)c2OC2CCN(C(=O)OC(C)(C)C)CC2)c1)c1ccc2c(c1)OCO2 [compound 157, Tert-butyl 4-[2-[3-[1,3-benzodioxol-5-yl(methyl)carbamoyl]phenyl]-4-chloro-5-(trifluoromethyl)pyrazol-3-yl]oxypiperidine-1-carboxylate]
< 1 | CCOc1cc(C(F)(F)F)nn1-c1cccc(C(=O)N(C)c2ccc3c(c2)OCO3)c1 [compound 158, N-(1,3-benzodioxol-5-yl)-3-[5-ethoxy-3-(trifluoromethyl)pyrazol-1-yl]-N-methyl-benzamide]

More lines, now with the values behind:

Structure (SMILES) | EC50 [µM]
Cc1nn(-c2cccc(C(=O)N(C)c3ccc4c(c3)OCO4)c2)c(COc2ccccc2)c1Cl [compound 118, N-(1,3-Benzodioxol-5-yl)-3-[4-chloro-3-methyl-5-(phenoxymethyl)pyrazol-1-yl]-N-methyl-benzamide] | < 1
Cc1nn(-c2cccc(C(=O)N(C)c3ccc4c(c3)OCO4)c2)c(C(=O)c2ccccc2)c1Cl [compound 119, N-(1,3-benzodioxol-5-yl)-3-(5-benzoyl-4-chloro-3-methyl-pyrazol-1-yl)-N-methyl-benzamide] | < 1
Cc1nc2ccc(NC(=O)c3cccc(-n4nc(C(F)(F)F)c(Cl)c4C)c3)cc2o1 [compound 120, 3-[4-Chloro-5-methyl-3-(trifluoromethyl)pyrazol-1-yl]-N-(2-methyl-1,3-benzoxazol-6-yl)benzamide] | 1 to 2
Cc1c(Cl)c(C(F)(F)F)nn1-c1cccc(C(=O)N(C)c2ccc3cn(C)nc3c2)c1 [compound 122, 3-[4-Chloro-5-methyl-3-(trifluoromethyl)pyrazol-1-yl]-N-methyl-N-(2-methylindazol-6-yl)benzamide] | 1 to 2
Cc1nc2cc(Cl)c(N(C)C(=O)c3cccc(-n4nc(C(F)(F)F)c(Cl)c4C)c3)cc2o1 [compound 123, N-(5-Chloro-2-methyl-1,3-benzoxazol-6-yl)-3-[4-chloro-5-methyl-3-(trifluoromethyl)pyrazol-1-yl]-N-methyl-benzamide] | < 1
CN(C(=O)c1cccc(-n2nc(C(F)(F)F)c(Cl)c2-c2ccccc2)c1)c1ccc2c(c1)OCO2 [compound 124, N-(1,3-Benzodioxol-5-yl)-3-[4-chloro-5-phenyl-3-(trifluoromethyl)pyrazol-1-yl]-N-methyl-benzamide] | < 1
Cc1c(F)c(C(F)(F)F)nn1-c1cccc(C(=O)N(C)c2ccc3c(c2)OCO3)c1 [compound 126, N-(1,3-Benzodioxol-5-yl)-3-[4-fluoro-5-methyl-3-(trifluoromethyl)pyrazol-1-yl]-N-methyl-benzamide] | < 1
Cc1c(Cl)c(C(F)(F)F)nn1-c1cccc(C(=O)Nc2cc3c(cc2Cl)OCO3)c1 [compound 127, N-(6-Chloro-1,3-benzodioxol-5-yl)-3-[4-chloro-5-methyl-3-(trifluoromethyl)pyrazol-1-yl]benzamide] | > 2
Cc1c(Cl)c(C(F)(F)F)nn1-c1cccc(C(=O)Nc2ccc3c(c2)OCO3)c1 [compound 128, N-(1,3-Benzodioxol-5-yl)-3-[4-chloro-5-methyl-3-(trifluoromethyl)pyrazol-1-yl]benzamide] | > 2
Cc1nnc(-c2c(Cl)c(C)nn2-c2cccc(C(=O)N(C)c3ccc4c(c3)OCO4)c2)o1 [compound 129, N-(1,3-Benzodioxol-5-yl)-3-[4-chloro-3-methyl-5-(5-methyl-1,3,4-oxadiazol-2-yl)pyrazol-1-yl]-N-methyl-benzamide] | < 1
CCOC(=O)c1cc(C(F)(F)F)nn1-c1cccc(C(=O)N(C)c2ccc3c(c2)OCO3)c1 [compound 130, Ethyl 2-[3-[1,3-benzodioxol-5-yl(methyl)carbamoyl]phenyl]-5-(trifluoromethyl)pyrazole-3-carboxylate] | < 1
CC(C)Oc1cc(C(F)(F)F)nn1-c1cccc(C(=O)N(C)c2ccc3c(c2)OCO3)c1 [compound 131, N-(1,3-benzodioxol-5-yl)-3-[5-isopropoxy-3-(trifluoromethyl)pyrazol-1-yl]-N-methyl-benzamide] | < 1
CN(C(=O)c1cccc(-n2nc(C(F)(F)F)cc2OCc2ccccc2)c1)c1ccc2c(c1)OCO2 [compound 132, N-(1,3-benzodioxol-5-yl)-3-[5-benzyloxy-3-(trifluoromethyl)pyrazol-1-yl]-N-methyl-benzamide] | < 1
CN(C(=O)c1cccc(-n2nc(C(F)(F)F)cc2OCCc2ccccc2)c1)c1ccc2c(c1)OCO2 [compound 133, N-(1,3-Benzodioxol-5-yl)-N-methyl-3-[5-phenethyloxy-3-(trifluoromethyl)pyrazol-1-yl]benzamide] | < 1
CN(C(=O)c1cccc(-n2nc(C(F)(F)F)c(Cl)c2OCc2ccccc2)c1)c1ccc2c(c1)OCO2 [compound 134, N-(1,3-Benzodioxol-5-yl)-3-[5-benzyloxy-4-chloro-3-(trifluoromethyl)pyrazol-1-yl]-N-methyl-benzamide] | < 1
CCN(C(=O)c1cccc(-n2nc(C(F)(F)F)c(Cl)c2C2CC2)c1)c1ccc2nc(C)oc2c1 [compound 135, 3-[4-Chloro-5-cyclopropyl-3-(trifluoromethyl)pyrazol-1-yl]-N-ethyl-N-(2-methyl-1,3-benzoxazol-6-yl)benzamide] | < 1
Cc1nc2ccc(N(C)C(=O)c3cccc(-n4nc(C(F)(F)F)c(Cl)c4C4CC4)c3)cc2o1 [compound 137, 3-[4-Chloro-5-cyclopropyl-3-(trifluoromethyl)pyrazol-1-yl]-N-methyl-N-(2-methyl-3-benzoxazol-6-yl)benzamide] | < 1
[2H]C([2H])([2H])N(C(=O)c1cccc(-n2nc(C(F)(F)F)c(Cl)c2C2CC2)c1)c1ccc2nc(C)oc2c1 [compound 138, 3-[4-Chloro-5-cyclopropyl-3-(trifluoromethyl)pyrazol-1-yl]-N-(2-methyl-1,3-benzoxazol-6-yl)-N-(trideuteriomethyl)benzamide] | < 1
Cc1nc2cc(Cl)c(N(C)C(=O)c3cccc(-n4nc(C(F)(F)F)c(Cl)c4C4CC4)c3)cc2o1 [compound 139, 3-[4-Chloro-5-cyclopropyl-3-(trifluoromethyl)pyrazol-1-yl]-N-(5-chloro-2-methyl-1,3-benzoxazol-6-yl)-N-methyl-benzamide] | < 1
CCOC(=O)c1cccc(OCc2c(Cl)c(C)nn2-c2cccc(C(=O)N(C)c3ccc4c(c3)OCO4)c2)c1 [compound 140, Ethyl 3-[[2-[3-[1,3-benzodioxol-5-yl(methyl)carbamoyl]phenyl]-4-chloro-5-methyl-pyrazol-3-yl]methoxy]benzoate] | < 1
CC(C)Oc1c(Cl)c(C(F)(F)F)nn1-c1cccc(C(=O)N(C)c2ccc3c(c2)OCO3)c1 [compound 142, N-(1,3-Benzodioxol-5-yl)-3-[4-chloro-5-isopropoxy-3-(trifluoromethyl)pyrazol-1-yl]-N-methyl-benzamide] | < 1
Cc1nn(-c2cccc(C(=O)N(C)c3ccc4c(c3)OCO4)c2)c(COc2cccc(C(=O)O)c2)c1Cl [compound 143, 3-[[2-[3-[1,3-Benzodioxol-5-yl(methyl)carbamoyl]phenyl]-4-chloro-5-methyl-pyrazol-3-yl]methoxy]benzoic acid] | 1 to 2
